From patent US8084649B2, “Herbicides” (Syngenta Crop Protection, inc., priority 2007, dated 2011)

tested on: Alopecurus myosuroides (ALOMY); assay: Pre-emergence herbicidal activity, glasshouse pot test; format: in vivo; details: Alopecurus myosuroides, 480 h, rate 500 g/ha, evaluated after 20 days, read-out: Pre-emergence activity, ALOMY (100=total damage to plant; 0=no damage to plant)
Outline: (§1)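 Visual damage score 0–100 (100 = plant totally killed), taken 20 days after treatment. Spray was applied to pots of sterilised standard soil one day post-sowing, using an aqueous solution of compound in acetone and a surfactant/solvent blend (Emulsogen EL, NMP, DPGME, X-77).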

Structure (SMILES) | pest or weed control at 500 g/ha
CCCS(=O)(=O)C(C)CC1CC(=O)C(c2c(C)cc(C)cc2C)=C(O)C1 (stereo not drawn) [Compound T40] | 80%
CCSC(C)CC1CC(=O)C(c2c(C)cc(C)cc2CC)=C(O)C1 (stereo not drawn) [Compound T1] | 60%
CCc1cc(C)cc(CC)c1C1=C(OC(=O)C2CCCCC2)CC2(CCOCC2)CC1=O [Compound P12] | 100%
CCc1cc(C)cc(CC)c1C1=C(O)CC2(CCC(OC)CC2)CC1=O (stereo not drawn) [Compound T68] | 90%
CCc1cc(C)cc(CC)c1C1=C(OC(=O)COC)CC2(CCOCC2)CC1=O [Compound P8] | 100%

tested on: Avena fatua (AVEFA); assay: as above; format: in vivo; details: Avena fatua, 480 h, rate 500 g/ha, evaluated after 20 days, read-out: Pre-emergence activity, AVEFA (100=total damage to plant; 0=no damage to plant)
Outline: as §1

Structure (SMILES) | pest or weed control at 500 g/ha
CCCS(=O)(=O)C(C)CC1CC(=O)C(c2c(C)cc(C)cc2C)=C(O)C1 (stereo not drawn) [Compound T40] | 50%
CCSC(C)CC1CC(=O)C(c2c(C)cc(C)cc2CC)=C(O)C1 (stereo not drawn) [Compound T1] | 30%
CCc1cc(C)cc(CC)c1C1=C(OC(=O)C2CCCCC2)CC2(CCOCC2)CC1=O [Compound P12] | 100%
CCc1cc(C)cc(CC)c1C1=C(O)CC2(CCC(OC)CC2)CC1=O (stereo not drawn) [Compound T68] | 70%
CCc1cc(C)cc(CC)c1C1=C(OC(=O)COC)CC2(CCOCC2)CC1=O [Compound P8] | 90%

tested on: Digitaria sanguinalis (DIGSA); assay: as above; format: in vivo; details: Digitaria sanguinalis, 480 h, rate 500 g/ha, evaluated after 20 days, read-out: Pre-emergence activity, DIGSA (100=total damage to plant; 0=no damage to plant)
Outline: as §1

Structure (SMILES) | pest or weed control at 500 g/ha
CCCS(=O)(=O)C(C)CC1CC(=O)C(c2c(C)cc(C)cc2C)=C(O)C1 (stereo not drawn) [Compound T40] | 50%
CCSC(C)CC1CC(=O)C(c2c(C)cc(C)cc2CC)=C(O)C1 (stereo not drawn) [Compound T1] | 70%
CCc1cc(C)cc(CC)c1C1=C(OC(=O)C2CCCCC2)CC2(CCOCC2)CC1=O [Compound P12] | 100%
CCc1cc(C)cc(CC)c1C1=C(O)CC2(CCC(OC)CC2)CC1=O (stereo not drawn) [Compound T68] | 100%
CCc1cc(C)cc(CC)c1C1=C(OC(=O)COC)CC2(CCOCC2)CC1=O [Compound P8] | 100%

tested on: Echinochloa crus-galli (ECHCG); assay: as above; format: in vivo; details: Echinochloa crus-galli, 480 h, rate 500 g/ha, evaluated after 20 days, read-out: Pre-emergence activity, ECHCG (100=total damage to plant; 0=no damage to plant)
Outline: as §1

Structure (SMILES) | pest or weed control at 500 g/ha
CCCS(=O)(=O)C(C)CC1CC(=O)C(c2c(C)cc(C)cc2C)=C(O)C1 (stereo not drawn) [Compound T40] | 70%
CCSC(C)CC1CC(=O)C(c2c(C)cc(C)cc2CC)=C(O)C1 (stereo not drawn) [Compound T1] | 100%
CCc1cc(C)cc(CC)c1C1=C(OC(=O)C2CCCCC2)CC2(CCOCC2)CC1=O [Compound P12] | 100%
CCc1cc(C)cc(CC)c1C1=C(O)CC2(CCC(OC)CC2)CC1=O (stereo not drawn) [Compound T68] | 70%
CCc1cc(C)cc(CC)c1C1=C(OC(=O)COC)CC2(CCOCC2)CC1=O [Compound P8] | 100%

tested on: Lolium perenne (LOLPE); assay: as above; format: in vivo; details: Lolium perenne, 480 h, rate 500 g/ha, evaluated after 20 days, read-out: Pre-emergence activity, LOLPE (100=total damage to plant; 0=no damage to plant)
Outline: as §1

Structure (SMILES) | pest or weed control at 500 g/ha
CCCS(=O)(=O)C(C)CC1CC(=O)C(c2c(C)cc(C)cc2C)=C(O)C1 (stereo not drawn) [Compound T40] | 90%
CCSC(C)CC1CC(=O)C(c2c(C)cc(C)cc2CC)=C(O)C1 (stereo not drawn) [Compound T1] | 70%
CCc1cc(C)cc(CC)c1C1=C(OC(=O)C2CCCCC2)CC2(CCOCC2)CC1=O [Compound P12] | 100%
CCc1cc(C)cc(CC)c1C1=C(O)CC2(CCC(OC)CC2)CC1=O (stereo not drawn) [Compound T68] | 100%
CCc1cc(C)cc(CC)c1C1=C(OC(=O)COC)CC2(CCOCC2)CC1=O [Compound P8] | 100%

tested on: Setaria faberi (SETFA); assay: as above; format: in vivo; details: Setaria faberi, 480 h, rate 500 g/ha, evaluated after 20 days, read-out: Pre-emergence activity, SETFA (100=total damage to plant; 0=no damage to plant)
Outline: as §1

Structure (SMILES) | pest or weed control at 500 g/ha
CCCS(=O)(=O)C(C)CC1CC(=O)C(c2c(C)cc(C)cc2C)=C(O)C1 (stereo not drawn) [Compound T40] | 60%
CCSC(C)CC1CC(=O)C(c2c(C)cc(C)cc2CC)=C(O)C1 (stereo not drawn) [Compound T1] | 70%
CCc1cc(C)cc(CC)c1C1=C(OC(=O)C2CCCCC2)CC2(CCOCC2)CC1=O [Compound P12] | 100%
CCc1cc(C)cc(CC)c1C1=C(O)CC2(CCC(OC)CC2)CC1=O (stereo not drawn) [Compound T68] | 30%
CCc1cc(C)cc(CC)c1C1=C(OC(=O)COC)CC2(CCOCC2)CC1=O [Compound P8] | 100%

tested on: Alopecurus myosuroides (ALOMY); assay: Post-emergence herbicidal activity, glasshouse pot test; format: in vivo; details: Alopecurus myosuroides, rate 125 g/ha, evaluated after 14 or 15 days, read-out: Post-emergence activity, ALOMY (100=total damage to plant; 0=no damage to plant)
Outline: (§2)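 Damage rated visually on a 0–100 scale (100 = total damage) 14 or 15 days after spraying. Pots of sterilised standard soil; plants treated post-emergence after 10 days glasshouse cultivation with an aqueous spray from an acetone/Emulsogen EL/N-methylpyrrolidone/dipropylene glycol monomethyl ether/X-77 formulation.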

Structure (SMILES) | pest or weed control at 125 g/ha
CCCS(=O)(=O)C(C)CC1CC(=O)C(c2c(C)cc(C)cc2C)=C(O)C1 (stereo not drawn) [Compound T40] | 80%
CCc1cc(C)cc(CC)c1C1=C(OC(=O)C2CCCCC2)CC2(CCOCC2)CC1=O [Compound P12] | 80%
CCc1cc(C)cc(CC)c1C1=C(O)CC2(CCC(OC)CC2)CC1=O (stereo not drawn) [Compound T68] | 80%
CCc1cc(C)cc(CC)c1C1=C(OC(=O)COC)CC2(CCOCC2)CC1=O [Compound P8] | 90%

same assay, conditions: Alopecurus myosuroides, rate 500 g/ha, evaluated after 14 or 15 days, read-out: Post-emergence activity, ALOMY (100=total damage to plant; 0=no damage to plant)

Structure (SMILES) | pest or weed control at 500 g/ha
CCSC(C)CC1CC(=O)C(c2c(C)cc(C)cc2CC)=C(O)C1 (stereo not drawn) [Compound T1] | 70%

tested on: Avena fatua (AVEFA); assay: as above; format: in vivo; details: Avena fatua, rate 125 g/ha, evaluated after 14 or 15 days, read-out: Post-emergence activity, AVEFA (100=total damage to plant; 0=no damage to plant)
Outline: as §2

Structure (SMILES) | pest or weed control at 125 g/ha
CCCS(=O)(=O)C(C)CC1CC(=O)C(c2c(C)cc(C)cc2C)=C(O)C1 (stereo not drawn) [Compound T40] | 30%
CCc1cc(C)cc(CC)c1C1=C(OC(=O)C2CCCCC2)CC2(CCOCC2)CC1=O [Compound P12] | 90%
CCc1cc(C)cc(CC)c1C1=C(O)CC2(CCC(OC)CC2)CC1=O (stereo not drawn) [Compound T68] | 40%
CCc1cc(C)cc(CC)c1C1=C(OC(=O)COC)CC2(CCOCC2)CC1=O [Compound P8] | 100%

same assay, conditions: Avena fatua, rate 500 g/ha, evaluated after 14 or 15 days, read-out: Post-emergence activity, AVEFA (100=total damage to plant; 0=no damage to plant)

Structure (SMILES) | pest or weed control at 500 g/ha
CCSC(C)CC1CC(=O)C(c2c(C)cc(C)cc2CC)=C(O)C1 (stereo not drawn) [Compound T1] | 70%

tested on: Digitaria sanguinalis (DIGSA); assay: as above; format: in vivo; details: Digitaria sanguinalis, rate 125 g/ha, evaluated after 14 or 15 days, read-out: Post-emergence activity, DIGSA (100=total damage to plant; 0=no damage to plant)
Outline: as §2

Structure (SMILES) | pest or weed control at 125 g/ha
CCCS(=O)(=O)C(C)CC1CC(=O)C(c2c(C)cc(C)cc2C)=C(O)C1 (stereo not drawn) [Compound T40] | 50%
CCc1cc(C)cc(CC)c1C1=C(OC(=O)C2CCCCC2)CC2(CCOCC2)CC1=O [Compound P12] | 90%
CCc1cc(C)cc(CC)c1C1=C(O)CC2(CCC(OC)CC2)CC1=O (stereo not drawn) [Compound T68] | 30%
CCc1cc(C)cc(CC)c1C1=C(OC(=O)COC)CC2(CCOCC2)CC1=O [Compound P8] | 100%

same assay, conditions: Digitaria sanguinalis, rate 500 g/ha, evaluated after 14 or 15 days, read-out: Post-emergence activity, DIGSA (100=total damage to plant; 0=no damage to plant)

Structure (SMILES) | pest or weed control at 500 g/ha
CCSC(C)CC1CC(=O)C(c2c(C)cc(C)cc2CC)=C(O)C1 (stereo not drawn) [Compound T1] | 90%

tested on: Echinochloa crus-galli (ECHCG); assay: as above; format: in vivo; details: Echinochloa crus-galli, rate 125 g/ha, evaluated after 14 or 15 days, read-out: Post-emergence activity, ECHCG (100=total damage to plant; 0=no damage to plant)
Outline: as §2

Structure (SMILES) | pest or weed control at 125 g/ha
CCCS(=O)(=O)C(C)CC1CC(=O)C(c2c(C)cc(C)cc2C)=C(O)C1 (stereo not drawn) [Compound T40] | 60%
CCc1cc(C)cc(CC)c1C1=C(OC(=O)C2CCCCC2)CC2(CCOCC2)CC1=O [Compound P12] | 100%
CCc1cc(C)cc(CC)c1C1=C(O)CC2(CCC(OC)CC2)CC1=O (stereo not drawn) [Compound T68] | 20%
CCc1cc(C)cc(CC)c1C1=C(OC(=O)COC)CC2(CCOCC2)CC1=O [Compound P8] | 100%

same assay, conditions: Echinochloa crus-galli, rate 500 g/ha, evaluated after 14 or 15 days, read-out: Post-emergence activity, ECHCG (100=total damage to plant; 0=no damage to plant)

Structure (SMILES) | pest or weed control at 500 g/ha
CCSC(C)CC1CC(=O)C(c2c(C)cc(C)cc2CC)=C(O)C1 (stereo not drawn) [Compound T1] | 90%

tested on: Lolium perenne (LOLPE); assay: as above; format: in vivo; details: Lolium perenne, rate 125 g/ha, evaluated after 14 or 15 days, read-out: Post-emergence activity, LOLPE (100=total damage to plant; 0=no damage to plant)
Outline: as §2

Structure (SMILES) | pest or weed control at 125 g/ha
CCCS(=O)(=O)C(C)CC1CC(=O)C(c2c(C)cc(C)cc2C)=C(O)C1 (stereo not drawn) [Compound T40] | 80%
CCc1cc(C)cc(CC)c1C1=C(OC(=O)C2CCCCC2)CC2(CCOCC2)CC1=O [Compound P12] | 100%
CCc1cc(C)cc(CC)c1C1=C(O)CC2(CCC(OC)CC2)CC1=O (stereo not drawn) [Compound T68] | 80%
CCc1cc(C)cc(CC)c1C1=C(OC(=O)COC)CC2(CCOCC2)CC1=O [Compound P8] | 90%

same assay, conditions: Lolium perenne, rate 500 g/ha, evaluated after 14 or 15 days, read-out: Post-emergence activity, LOLPE (100=total damage to plant; 0=no damage to plant)

Structure (SMILES) | pest or weed control at 500 g/ha
CCSC(C)CC1CC(=O)C(c2c(C)cc(C)cc2CC)=C(O)C1 (stereo not drawn) [Compound T1] | 70%

tested on: Setaria faberi (SETFA); assay: as above; format: in vivo; details: Setaria faberi, rate 125 g/ha, evaluated after 14 or 15 days, read-out: Post-emergence activity, SETFA (100=total damage to plant; 0=no damage to plant)
Outline: as §2

Structure (SMILES) | pest or weed control at 125 g/ha
CCCS(=O)(=O)C(C)CC1CC(=O)C(c2c(C)cc(C)cc2C)=C(O)C1 (stereo not drawn) [Compound T40] | 50%
CCc1cc(C)cc(CC)c1C1=C(OC(=O)C2CCCCC2)CC2(CCOCC2)CC1=O [Compound P12] | 90%
CCc1cc(C)cc(CC)c1C1=C(O)CC2(CCC(OC)CC2)CC1=O (stereo not drawn) [Compound T68] | 20%
CCc1cc(C)cc(CC)c1C1=C(OC(=O)COC)CC2(CCOCC2)CC1=O [Compound P8] | 90%

same assay, conditions: Setaria faberi, rate 500 g/ha, evaluated after 14 or 15 days, read-out: Post-emergence activity, SETFA (100=total damage to plant; 0=no damage to plant)

Structure (SMILES) | pest or weed control at 500 g/ha
CCSC(C)CC1CC(=O)C(c2c(C)cc(C)cc2CC)=C(O)C1 (stereo not drawn) [Compound T1] | 80%
